{
  "source": "patent US20200199530A1",
  "about": "“METHODS OF DIFFERENTIATING STEM CELL-DERIVED ECTODERMAL LINEAGE PRECURSORS” (MEMORIAL SLOAN-KETTERING CANCER CENTER, priority 2017, published 2020)",
  "key": {"[1]": {"system": "rodent GSK3β homologs", "details": "cited from earlier work"}, "[2]": {"system": "SIX1 placode cells (PAX3 expression)", "experiment": "Trigeminal placode induction by CHIR99021 pulse", "format": "cell-based, human", "details": "additional pulse after the placode-inducing BMP pulse", "protocol": "(§1) All differentiations starting from E8 were dissociated into single cells using EDTA and re-plated at high density in E8 with the ROCK inhibitor (Tocris). Cells were typically seeded at a density of 200,000 cells/cm^2 on Matrigel coated dishes. Switching from E8 to E6 triggered differentiations (i.e. d0). Neuroectoderm (NE) formation was generated by culturing the cells in E6 with 10 μM SB and 500 nM LDN until d12. Neural Crest (NC) was first treated with 10 μM SB, 600 nM CHIR and 1 ng/ml BMP4 from d0-d2. At d3, cells were maintained in 10 μM SB with 1.5 uM CHIR until d12. Lens placode was first treated with 10 μM SB and 5 ng/ml BMP4 from d0-d2. At d3, cells were maintained in 10 μM SB with 50 ng/ml FGF2 until d12. Trigeminal placode was first treated with 10 μM SB and 5 ng/ml BMP4 from d0-d2. At d2, 600 nm CHIR was added. At d3, cells were treated with 10 μM SB and 600 nM CHIR. From d4-d12, cells were treated with 10 μM SB. Finally, non-neural ectoderm (NNE) was treated with 10 μM SB, 10 μM SU5402 and 10 ng/ml BMP4 from d0-d1, and then treated with 10 μM SB and 5 ng/ml BMP4 from d2-d12.\nTrigeminal Placode differentiation. Day 0 (0-24 hrs): Add E6 media containing 5 ng/ml BMP4+10 μM SB to cells.\nDay 1 (24-48 hrs): Change media with E6 media containing 5 ng/ml BMP4+10 μM SB to cells.\nDay 2 (48-72 hrs): Change media with E6 media containing 5 ng/ml BMP4+10 μM SB+600 nM CHIR to cells. […]"}, "[3]": {"system": "hPSCs", "experiment": "Tolerability of small molecules during E6-based differentiation", "format": "cell-based, human", "details": "had to be re-titrated"}, "[4]": {"system": "hPSC differentiated towards pituitary placode", "experiment": "Pituitary placode induction from hPSC", "format": "cell-based, human", "details": "1 μM, with FGF8 and FGF10, day 15", "protocol": "For pituitary differentiation cells were plated at 250 000 cells/cm^2 on VTN-N coated dishes (differentiation works best in 24 well plates) in E8+10 μM Y-27632. After 24 h (day0) medium was changed to E6 supplemented with 10 μM SB431542 and 5 ng/ml BMP4 (R&D Systems). Medium was changed every day. On day 3 BMP4 was removed from the medium and cells were cultured for 1 day in E6+10 μM SB431542. For the standard differentiation conditions, on day 4 E6 was supplemented with 10 μM SB431542, 200 ng/ml SHH (R&D Systems, C25II), 100 ng/ml FGF8b (R&D Systems) and 50 ng/ml FGF10 (Peprotech Inc.). For some experiments SHH was replaced by 1 μM purmorphamine (Stemgent) or 1 μM SAG (Stemcell Technologies). From now on medium volume was doubled and cells were feed every other day until day 15. […] Purified cells were then plated as droplets (50 000 cells/10 μl drop) in E6 supplemented with 10 μM Y-27632, 200 ng/ml SHH, 100 ng/ml FGF8b and 50 ng/ml FGF10 on polyornithine/laminin/fibronectin-coated plates. After 24 h medium was changed to E6 containing SHH, FGF8 and FGF10 until day 30. Medium was changed every other day. […] For quantitative RT PCR the present example used the SSoFast EvaGreen Mix (BioRad) in combination with QuantiTect primer assays (Qiagen) on a BioRad CFX96 Thermal Cycler. […] Results are calculated using the ΔΔCt method (Livak and Schmittgen, 2001)."}, "[5]": {"system": "human pluripotent stem cells (PAX6::H2B-GFP reporter)", "experiment": "Neuroectoderm induction in E6 media, PAX6 positive cells", "format": "cell-based", "details": "day 12 post induction, no small molecules ~40%", "protocol": "as §1\nNeuroectoderm differentiation. Day 0 (0-24 hrs): Add E6 media containing 500 nM LDN+10 μM SB to cells. To skew the differentiation more toward an anterior neuroectoderm, add E6 media containing 500 nM LDN+10 μM SB+5 μM XAV to cells. […]"}},
  "data": [
    {"smiles": "Cc1c[nH]c(-c2cnc(NCCNc3ccc(C#N)cn3)nc2-c2ccc(Cl)cc2Cl)n1", "note": "[CHIR99021, 6-(2-(4-(2,4-dichlorophenyl)-5-(4-methyl-1H-imidazol-2-yl)pyrimidin-2-ylamino)ethylamino)nicotinonitrile]", "values": [
      {"measurement": "IC50 values against rodent GSK3β homologs", "setting": "[1]", "result": "nanomolar"},
      {"measurement": "PAX3 expression in placode cells", "setting": "[2]", "result": "capable of triggering PAX3+ and PAX6− expression"},
      {"measurement": "cell killing at the original (KSR protocol) concentration", "setting": "[3]", "result": "effectively killed the cells"}
    ]},
    {"smiles": "CNC1CCC(N(Cc2cccc(-c3ccncc3)c2)C(=O)c2sc3ccccc3c2Cl)CC1", "note": "(stereo not drawn) [SAG]", "values": [
      {"measurement": "replacement of recombinant SHH in pituitary induction", "setting": "[4]", "result": "can be replaced"}
    ]},
    {"smiles": "NC(=O)c1ccc(-c2nc(-c3ccc4c(c3)OCO4)c(-c3ccccn3)[nH]2)cc1", "note": "[SB431542, 4-[4-(1,3-benzodioxol-5-yl)-5-(2-pyridinyl)-1H-imidazol-2-yl]-benzamide]", "values": [
      {"measurement": "percentage of cells expressing PAX6", "setting": "[5]", "result": "~90", "unit": "%"}
    ]},
    {"smiles": "c1ccc2c(Oc3nc(Nc4ccc(N5CCOCC5)cc4)c4ncn(C5CCCCC5)c4n3)cccc2c1", "note": "[purmorphamine]", "values": [
      {"measurement": "replacement of recombinant SHH in pituitary induction", "setting": "[4]", "result": "can be replaced"}
    ]}
  ]
}
